Among the data in ChEMBL document CHEMBL1123515, “Bioisosteric prototype design of biaryl imidazolyl and triazolyl competitive histamine H2-receptor antagonists” (1986) are Kb, inhibition in vivo and ED50 values, retold here.

As usually defined, the Kb is the equilibrium dissociation constant of an antagonist, usually derived from a functional assay. Read a high Kb as lower antagonist affinity. By inhibition in vivo is commonly meant the drop in the measured response relative to a control, in per cent. Higher therefore signals strong suppression. For orientation: ED50 means the dose that gives a 50% effect, or the effect in half of the subjects. High values mean a need for a large dose, low ones an effect at a small dose.

For assay [1], the target named is Histamine H2 receptor (Cavia porcellus) (UniProt P47747). The experiment in a line: Histamine H2 receptor antagonistic activity was evaluated in guinea pig atrium. It is filed as functional, tissue-based. The settings on record: Cardiac atrium.
Histamine H2 receptor (Cavia porcellus), sequence (P47747 whole entry): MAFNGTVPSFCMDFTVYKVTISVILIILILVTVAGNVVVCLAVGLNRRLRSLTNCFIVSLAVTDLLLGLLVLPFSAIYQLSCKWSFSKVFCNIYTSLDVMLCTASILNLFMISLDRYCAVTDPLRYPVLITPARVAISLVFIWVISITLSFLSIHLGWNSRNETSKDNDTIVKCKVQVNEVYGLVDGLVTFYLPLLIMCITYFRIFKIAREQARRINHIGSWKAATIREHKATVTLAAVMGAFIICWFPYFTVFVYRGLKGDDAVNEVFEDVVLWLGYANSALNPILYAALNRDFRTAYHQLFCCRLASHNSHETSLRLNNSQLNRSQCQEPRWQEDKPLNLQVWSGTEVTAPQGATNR
In assay [2] the test system is Canis familiaris. Nature of the assay: Maximum percent inhibition of acid output in penta gastrin-stimulated Heidenhain pouch dogs at a dose of 1 mg/kg, given intravenously (iv). The format is functional. The settings on record: Canis lupus familiaris.
The subject of assay [3] is Canis familiaris. Nature of the assay: Effective dose on intravenous administration was evaluated for the inhibition of acid output in penta gastrin stimulated Heidenhain pouch dogs. The format is functional. The settings on record: Canis lupus familiaris.
For assay [4], the system named is Canis familiaris. The experiment in a line: Maximum percent inhibition of acid output in penta gastrin-stimulated Heidenhain pouch dogs at a dose of 5 mg/kg, given intravenously (iv). The format is functional. The settings on record: Canis lupus familiaris.
The test system of assay [5] is Canis familiaris. The experiment in a line: Maximum percent inhibition of acid output in penta gastrin-stimulated Heidenhain pouch dogs at a dose of 10 mg/kg, given intravenously (iv). The format is functional. Conditions: Canis lupus familiaris.
In assay [6] the test system is Canis familiaris. Nature of the assay: Maximum percent inhibition of acid output in penta gastrin-stimulated Heidenhain pouch dogs at a dose of 7 mg/kg, given intravenously (iv). The settings on record: Canis lupus familiaris. The format is functional.
The test system of assay [7] is Canis familiaris. Nature of the assay: Effective dose on oral administration was evaluated for the inhibition of acid output in penta gastrin stimulated Heidenhain pouch dogs. The format is functional. The settings on record: Canis lupus familiaris.
Assay [8] deals with Canis familiaris. The experiment in a line: Maximum percent inhibition of acid output in penta gastrin-stimulated Heidenhain pouch dogs at a dose of 0.5 mg/kg, given intravenously (iv). The format is functional. The settings on record: Canis lupus familiaris.

In turn, `CCNc1cc(-c2n[nH]c(CC/N=C(\S)NC)n2)ccn1` showed a Kb in assay [1] of 0.69 µM. This compound also had an inhibition in vivo at 1 mg/kg in the assay on Canis familiaris [2] of 59%.

Regarding `CCNc1cc(-c2n[nH]c(N)n2)ccn1`, it took a dose of 0.87 mg/kg to reach the 50% effect level in the assay on Canis familiaris [3] (ED50).

In the assay on Canis familiaris [4], `CCNc1cc(-c2c[nH]c(C/N=C(/S)NC)n2)ccn1` showed an inhibition in vivo at 5 mg/kg of 54%.

In the case of `CCNc1cc(-c2n[nH]c(CCC/N=C(/S)NC)n2)ccn1`, in the assay with Canis familiaris [2], the inhibition in vivo at 1 mg/kg turned out to be 20%.

For `CNC(=C[N+](=O)[O-])NCCSCc1ccc(CN(C)C)o1`, in assay [1], the antagonist equilibrium constant (Kb) turned out to be 0.166 µM.

`CCNc1cc(-c2n[nH]c(C/N=C(/S)NC)n2)ccn1` had an inhibition in vivo at 10 mg/kg with Canis familiaris [5] of 48%.

The compound `CCNc1cc(-c2n[nH]c(CC/N=C(/NC)NC#N)n2)ccn1` registered an inhibition in vivo at 7 mg/kg in the assay with Canis familiaris [6] of 0%. In assay [1], this compound registered a Kb of 1.24 µM.

`CCNc1cc(-c2c[nH]c(CC/N=C(\S)NC)n2)ccn1` gave an inhibition in vivo at 5 mg/kg in the assay with Canis familiaris [4] of 47%. In addition, in assay [1], the Kb was 0.55 µM.

In the assay on Canis familiaris [7], `CN/C(=N\CCSCc1nc[nH]c1C)NC#N` [CIMETIDINE] showed an ED50 of 1.32 mg/kg. In addition, in the assay with Canis familiaris [5], the inhibition in vivo at 10 mg/kg was 1.02%.

`CCNc1cc(-c2n[nH]c(C/N=C(\NC)NC#N)n2)ccn1`: 10 mg/kg produced 0% inhibition in vivo with Canis familiaris [5].

For the compound `CCNc1cc(-c2c[nH]c(C/N=C(\NC)NC#N)n2)ccn1`, the inhibition in vivo at 5 mg/kg in the assay with Canis familiaris [4] turned out to be 32%.

Regarding `N=C(N)Nc1nc(-c2n[nH]c(N)n2)cs1`, the inhibition in vivo at 1 mg/kg with Canis familiaris [2] is 58%.

In turn, `Cc1n[nH]c(-c2csc(N=C(N)N)n2)n1` yielded an inhibition in vivo at 1 mg/kg in the assay on Canis familiaris [2] of 50%.

As to `N=C(N)Nc1nc(-c2c[nH]cn2)cs1`, in the assay with Canis familiaris [2], the inhibition in vivo at 1 mg/kg came out at 95%.

Regarding `C/N=C(\S)NCc1cc(-c2n[nH]c(N)n2)ccn1`, testing at 10 mg/kg with Canis familiaris [5] gave an inhibition in vivo of 19%.

In turn, `Cc1ncc(-c2csc(N=C(N)N)n2)[nH]1` [ZALTIDINE] yielded an inhibition in vivo at 0.5 mg/kg with Canis familiaris [8] of 90%. Further, the ED50 in the assay with Canis familiaris [7] was determined as 0.27 mg/kg. Besides, the antagonist equilibrium constant (Kb) in assay [1] was 0.018 µM.

In turn, `CCNc1cc(-c2n[nH]c(CCCC/N=C(/NC)NC#N)n2)ccn1` registered an inhibition in vivo at 10 mg/kg in the assay with Canis familiaris [5] of 16%.

Turning to `CCNc1cc(-c2n[nH]c(CCCC/N=C(\S)NC)n2)ccn1`, in the assay on Canis familiaris [4], the inhibition in vivo at 5 mg/kg was found to be 27%.

In the assay on Canis familiaris [2], `N=C(N)Nc1nc(-c2c[nH]c(N)n2)cs1` registered an inhibition in vivo at 1 mg/kg of 96%.
